Data as given in PubChem BioAssay (NCI).
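Interpolation was linear, between the two tested concentrations surrounding the appropriate level; five concentrations were tested over 48 hours in 96-well plates. The concentration for 50% growth inhibition is given as GI50. Definition used: TGI = concentration required for complete inhibition of growth.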

Experiments:
Experiment in all cases: inhibition of tumour cell growth, NCI panel, 48 h
SF-268 CNS = tested on: SF-268 CNS
M14 melanoma = tested on: M14 melanoma
NCI-H460 lung = tested on: NCI-H460 lung
OVCAR-8 ovarian = tested on: OVCAR-8 ovarian
786-0 renal = tested on: 786-0 renal
TK-10 renal = tested on: TK-10 renal
LOX IMVI melanoma = tested on: LOX IMVI melanoma
COLO 205 colon = tested on: COLO 205 colon
PC-3 prostate = tested on: PC-3 prostate
MDA-MB-435 = tested on: MDA-MB-435

SMILES	TGI (SF-268 CNS)	TGI (M14 melanoma)	TGI (NCI-H460 lung)	TGI (OVCAR-8 ovarian)	TGI (786-0 renal)	TGI (TK-10 renal)	TGI (LOX IMVI melanoma)	TGI (COLO 205 colon)	GI50 (SF-268 CNS)	GI50 (M14 melanoma)	GI50 (NCI-H460 lung)	GI50 (PC-3 prostate)	TGI (PC-3 prostate)	GI50 (OVCAR-8 ovarian)	GI50 (786-0 renal)	GI50 (TK-10 renal)	GI50 (LOX IMVI melanoma)	GI50 (COLO 205 colon)	GI50 (MDA-MB-435)	TGI (MDA-MB-435)
Cn1c(=O)ccc2cc(C(=O)c3ccccc3)ccc21	> 100 µM	> 100 µM	> 100 µM	> 100 µM	> 100 µM	> 100 µM	> 100 µM	> 100 µM												
O=C1OC(=O)C2C1C1(c3ccccc3)OC2(c2ccccc2)c2c(Br)c(Br)c(Br)c(Br)c21 (stereo unspecified)	> 100 µM	> 100 µM	> 100 µM	> 100 µM	> 100 µM	> 100 µM	> 100 µM	> 100 µM												
CC12CCC(C)(c3cc(O)c(O)cc31)c1cc(O)c(O)cc12	42.9 µM	36 µM	35.7 µM	57.9 µM	27.9 µM	40.3 µM	35.4 µM	30 µM												
Nc1c(C(=O)Nc2cccc3ccccc23)sc2nc3c(cc12)CCCCCC3	> 50 µM	> 50 µM	> 50 µM	> 50 µM	> 50 µM	> 50 µM	> 50 µM	4.8 µM	2.77 µM	1.05 µM	1.76 µM	1.79 µM	> 50 µM	2 µM	2.13 µM	> 50 µM	1.96 µM	1.45 µM		
Cc1ccc(Sc2cc([N+](=O)[O-])cc(Sc3ccc(C)cc3)c2Sc2ccc(C)cc2)cc1	> 100 µM	> 100 µM	> 100 µM	> 100 µM	> 100 µM	> 100 µM	> 100 µM	> 100 µM												
Cn1c(=O)c2nc3sc4ccccc4c(=N)n3c2n(C)c1=O	> 100 µM		> 100 µM	> 100 µM	> 100 µM	> 100 µM	> 100 µM	> 100 µM												
Fc1cccc(C2SCc3nc4ccccc4n32)c1 (stereo unspecified)	> 100 µM		> 100 µM	> 100 µM	> 100 µM	> 10 µM		> 100 µM												
CC(=O)NC1C(OCc2ccccc2)OC(COC(=O)CCCCCCCCCCNC(=O)CCNc2ccc([N+](=O)[O-])c3[nH]c4ccc(O)cc4c(=O)c23)C(O)C1OC(C)C(=O)N[C@H](C(=O)N[C@H](CCC(=O)O)C(N)=O)C(C)C (stereo partly specified)	> 100 µM	> 100 µM	> 100 µM	> 100 µM	> 100 µM	> 100 µM	89.2 µM	> 100 µM												
NCCCSCC(=O)O	> 100 µM			> 100 µM	> 100 µM	> 100 µM		> 100 µM												
OC(c1cc2c(Cl)cc(Cl)cc2c2cc(C(F)(F)F)ccc12)C1CCCCN1 (stereo unspecified)	3.82 µM	4.12 µM	3.4 µM		3.5 µM	3.63 µM		3.55 µM	1.86 µM	2.04 µM	1.7 µM	1.71 µM	3.26 µM		1.66 µM	2 µM		1.88 µM	2.14 µM	4.75 µM
CC(=O)O[C@H]1CC[C@@]2(C)[C@@H](CC[C@@H]3[C@@H]2CC(=O)[C@@]2(C)[C@H]3C[C@@H]3CC(C)=CC(=O)[C@@H]32)C1	> 100 µM	> 100 µM		> 100 µM	> 100 µM	> 100 µM	> 100 µM	> 100 µM					> 100 µM							> 100 µM
O=CN/C=C\c1cc(O)ccc1O	> 57.8 µM	> 50.3 µM	> 56.2 µM	32.1 µM	31.1 µM	> 64.7 µM	22.7 µM	29.5 µM												
CC(=O)Oc1cc(OC(C)=O)c(OC(C)=O)c2c1CC1C(=O)C3(CCc4ccccc43)C(=O)C1C2 (stereo unspecified)		> 100 µM	28.3 µM	36.7 µM	26.4 µM	31.7 µM	26.2 µM	37.9 µM												
O=c1cc(/C=C/c2ccccc2)c2ccc(O/C(=C\c3ccccc3)c3nc4ccccc4c(=O)o3)cc2o1	35.8 µM	50.1 µM	> 100 µM	> 100 µM	> 100 µM	> 100 µM	> 100 µM	73.8 µM												
CC(NC(=O)C1(N)CCCC1)C(=O)O (stereo unspecified)	> 100 µM	> 100 µM		> 100 µM	> 100 µM	> 100 µM	> 100 µM	> 100 µM					> 100 µM							> 100 µM
C=C(C=O)[C@@H]1CC=C(C=O)CC1	16.1 µM		> 77.2 µM	> 100 µM	80 µM	54.6 µM			2.94 µM		13.8 µM	4.12 µM	24.2 µM	3.69 µM	16.8 µM	8.76 µM			4.21 µM	74.3 µM
COc1cccc(/C=N/[N-]C(N)=O)c1[O-].[Cu+2].c1ccncc1	39.2 µM	31.4 µM	31.9 µM	86.1 µM	24 µM		36.5 µM	32.2 µM												
O=C1OC(/C=C/c2ccccc2)C(=O)C1=O (stereo unspecified)	> 100 µM	> 100 µM	> 100 µM		> 100 µM	> 100 µM		> 100 µM												
CCC1(O)CC(c2ccccc2)N(C)C(c2ccccc2)C1 (stereo unspecified)	> 100 µM	> 100 µM	> 100 µM	> 100 µM	> 100 µM	> 100 µM	> 100 µM	> 100 µM												
COc1ccccc1NC(=O)C(=O)C(C#N)CC(C)(C)C=O (stereo unspecified)	> 100 µM	> 100 µM	> 100 µM	> 100 µM	> 100 µM	> 100 µM	> 100 µM						> 100 µM							> 100 µM
C=C1[C@@H]2CCC(C)(C)[C@H]1CCC(=O)[C@@H]2C(=O)OC	> 100 µM	> 100 µM	> 100 µM	> 100 µM	> 100 µM	> 100 µM	> 100 µM	> 100 µM												
Nc1ncnc2c1c(-c1ccc(Oc3ccccc3)cc1)nn2C[C@H]1SSC[C@H]1O		0.0332 µM	0.0565 µM	3.87 µM	6.37 µM	1 µM	0.523 µM	1.8 µM		0.0157 µM	0.0233 µM	2.05 µM	11.8 µM	1.09 µM	2.04 µM	0.289 µM	0.0703 µM	0.464 µM	0.0255 µM	0.0736 µM
COc1cccc(-c2nn(C)c3sc(C(=O)NCCN4CCN(c5ccccc5F)CC4)cc23)c1	> 100 µM		> 100 µM	> 100 µM	25.1 µM	> 100 µM	> 100 µM	> 100 µM	46.9 µM		14.8 µM	11.5 µM	> 100 µM	7.85 µM	5.24 µM	65.4 µM	13.4 µM	20.6 µM	10.5 µM	> 100 µM
